The record followed here is PubChem BioAssay (NCI).

Molecules are shown by their SMILES.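 Results reflect a 48-hour exposure of cells in 96-well plates to compound at five concentrations. The concentration for 50% growth inhibition is given as GI50. At the TGI there is no net growth.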

Some test systems named below: SK-MEL-2 melanoma; HT29 colon; TK-10 renal; NCI-H23 lung; SR leukemia; A549 NSCLC; M14 melanoma; HCT-15 colon; SK-MEL-28 melanoma; IGROV1 ovarian.
What all share (experiment): NCI tumour cell line growth inhibition, 48 h

In the case of `Cc1ccc(-c2cn3ccnc3c(-c3ccc(Cl)cc3)n2)cc1`, the GI50 in the assay on SK-MEL-2 melanoma was 9.27 µM; with HT29 colon, 0.31 µM; in the assay on TK-10 renal, 0.419 µM; with NCI-H23 lung it was 0.433 µM; with SR leukemia, 0.0548 µM; in the assay on A549 NSCLC, 1.33 µM. Moreover, the GI50 was 0.416 µM with M14 melanoma, 1.23 µM in the assay on HCT-15 colon, 0.518 µM in the assay with SK-MEL-28 melanoma and 1.55 µM with IGROV1 ovarian. The TGI is over 100 µM in the assay with SK-MEL-2 melanoma; 37.4 µM in the assay with HT29 colon; 24.8 µM in the assay with TK-10 renal; 27.6 µM in the assay with NCI-H23 lung; over 49.8 µM in the assay with A549 NSCLC; over 36.3 µM in the assay on M14 melanoma. For the same compound, the TGI in the assay on HCT-15 colon is over 35.6 µM; in the assay on SK-MEL-28 melanoma it was 44 µM; in the assay with IGROV1 ovarian, over 83 µM.
Turning to `CC1(C)C(=NNC(=O)C[N+](C)(C)C)C(C)(C)C1=NNC(=O)C[N+](C)(C)C`, the TGI in the assay on SK-MEL-2 melanoma, with HT29 colon, in the assay with TK-10 renal, with NCI-H23 lung, with SR leukemia and in the assay on A549 NSCLC was over 100 µM each time. Further, the TGI in the assay on M14 melanoma, in the assay on HCT-15 colon, in the assay on SK-MEL-28 melanoma and in the assay with IGROV1 ovarian was over 100 µM throughout.
For `CC(C)c1cc(-c2n[nH]c(=O)n2-c2ccc3c(ccn3C)c2)c(O)cc1O`, the TGI was 25.7 µM in the assay with SK-MEL-2 melanoma; 12.5 µM with HT29 colon; 37 µM with TK-10 renal; 26.7 µM in the assay with NCI-H23 lung; 35 µM in the assay on SR leukemia; over 71.3 µM in the assay on A549 NSCLC. Further, the TGI was 21.1 µM with M14 melanoma, over 47.7 µM in the assay with HCT-15 colon, 17.2 µM in the assay on SK-MEL-28 melanoma and 24.8 µM with IGROV1 ovarian. The GI50 in the assay with HT29 colon was 0.0423 µM; with TK-10 renal, under 0.0271 µM; in the assay with NCI-H23 lung, 0.0247 µM; with SR leukemia, under 0.01 µM; with A549 NSCLC it was under 0.0204 µM; in the assay with M14 melanoma, under 0.0198 µM. Besides, the GI50 was under 0.02 µM in the assay with HCT-15 colon, under 0.0215 µM with SK-MEL-28 melanoma and under 0.0225 µM with IGROV1 ovarian.
For the compound `N#C/C(=C\c1ccc(O)c(O)c1)C(N)=S`, the TGI in the assay on SK-MEL-2 melanoma, in the assay on HT29 colon, with TK-10 renal, with NCI-H23 lung, with SR leukemia and in the assay on A549 NSCLC was over 100 µM in each case. Also, the TGI with M14 melanoma, in the assay on HCT-15 colon, with SK-MEL-28 melanoma and in the assay on IGROV1 ovarian was over 100 µM each time.
For `CC[C@@H](C(=O)O)C1CC[C@H](C)C([C@@H](C)[C@H](O)[C@H](C)C(=O)[C@H](CC)C2O[C@]3(C=C[C@@H](O)[C@]4(CC[C@@](C)(C5CC[C@](O)(CC)[C@H](C)O5)O4)O3)[C@H](C)C[C@@H]2C)O1` (stereo partly specified), the GI50 in the assay with SK-MEL-2 melanoma was 0.981 µM; in the assay with HT29 colon it was 0.293 µM; in the assay on TK-10 renal, 0.987 µM; with NCI-H23 lung, 0.186 µM; in the assay with SR leukemia, 0.0411 µM; in the assay with A549 NSCLC, 0.282 µM. The GI50 in the assay with M14 melanoma is 1.29 µM; in the assay with HCT-15 colon it was 0.446 µM; in the assay with SK-MEL-28 melanoma, 0.549 µM; in the assay on IGROV1 ovarian, 2.28 µM. Besides, the TGI stood at 7.53 µM with SK-MEL-2 melanoma; 25.7 µM in the assay on HT29 colon; 39.4 µM in the assay on TK-10 renal; 5.76 µM in the assay with NCI-H23 lung; 14 µM in the assay on SR leukemia; 14.1 µM with A549 NSCLC. Moreover, the TGI worked out at 2.82 µM in the assay with M14 melanoma, 21.8 µM in the assay on HCT-15 colon, 1.93 µM in the assay on SK-MEL-28 melanoma and 64.8 µM in the assay on IGROV1 ovarian.
For the compound `NCCn1c(=O)[nH]c(=O)[nH]c1=S`, the GI50 in the assay on SK-MEL-2 melanoma, with HT29 colon, in the assay with TK-10 renal, in the assay on NCI-H23 lung, in the assay with SR leukemia and in the assay with A549 NSCLC was over 100 µM throughout. Also, the GI50 is over 100 µM in the assay with M14 melanoma, 96.7 µM with HCT-15 colon, over 100 µM in the assay on SK-MEL-28 melanoma and over 100 µM with IGROV1 ovarian. The TGI in the assay on SK-MEL-2 melanoma, in the assay with HT29 colon, in the assay with TK-10 renal, in the assay with NCI-H23 lung, with SR leukemia and in the assay with A549 NSCLC was over 100 µM each time. Further, the TGI in the assay on M14 melanoma, in the assay on HCT-15 colon, with SK-MEL-28 melanoma and with IGROV1 ovarian was over 100 µM throughout.
Take `Cc1cc(N(CCCl)CCCl)ccc1C=Nc1ccc(-c2csc(Cc3ccccc3)n2)cc1`: the GI50 was 18.8 µM in the assay on SK-MEL-2 melanoma; 17.3 µM in the assay with HT29 colon; 19.9 µM in the assay with TK-10 renal; 8.96 µM in the assay on NCI-H23 lung; 1.07 µM with SR leukemia; 5.41 µM in the assay on A549 NSCLC. Besides, the GI50 was 15.7 µM in the assay with M14 melanoma, 15.2 µM in the assay on HCT-15 colon, 17.9 µM with SK-MEL-28 melanoma and 24.2 µM in the assay on IGROV1 ovarian. The TGI with SK-MEL-2 melanoma is 40.3 µM; with HT29 colon, 47.2 µM; in the assay on TK-10 renal, 62.5 µM; in the assay on NCI-H23 lung, 44.1 µM; in the assay on SR leukemia, 73.2 µM; with A549 NSCLC, over 62.4 µM. The TGI with M14 melanoma was 58.6 µM; in the assay with HCT-15 colon it was over 79.9 µM; in the assay with SK-MEL-28 melanoma, 63.1 µM; in the assay with IGROV1 ovarian it was over 100 µM.
Consider `CC(C)[C@H]1CO[C@]2(C)[C@@H]3CN(Cc4ccccc4)C[C@@H]3C(=O)N12`, for which the TGI in the assay on SK-MEL-2 melanoma, in the assay on HT29 colon, in the assay on TK-10 renal, with NCI-H23 lung, with SR leukemia and in the assay on A549 NSCLC was over 100 µM throughout. For the same compound, the TGI in the assay on M14 melanoma, in the assay on HCT-15 colon, in the assay with SK-MEL-28 melanoma and in the assay with IGROV1 ovarian was over 100 µM throughout.
For the compound `Cc1c(C(=O)C/C(=N\O)C(=O)Nc2cc(Cl)c(Cl)cc2Cl)[n+](=O)c2ccccc2n1[O-]`, the TGI is 34.8 µM in the assay on SK-MEL-2 melanoma; over 100 µM in the assay on HT29 colon; 72.2 µM with TK-10 renal; 65.6 µM in the assay on NCI-H23 lung; 84.4 µM in the assay on SR leukemia; over 100 µM with A549 NSCLC. In addition, the TGI in the assay on M14 melanoma came out at 15.9 µM; with HCT-15 colon it was 23.5 µM; with SK-MEL-28 melanoma, 52.1 µM; in the assay with IGROV1 ovarian, 20.9 µM.
On to `CC1OC(O[C@@H]2OC=C(C=O)[C@@]3(O)CC[C@H](C)[C@@H]23)C(O)C(O)C1O` (stereo partly specified), for which the TGI in the assay on SK-MEL-2 melanoma, in the assay with HT29 colon, in the assay on TK-10 renal, in the assay on NCI-H23 lung, in the assay with SR leukemia and with A549 NSCLC was over 100 µM throughout. The TGI in the assay on M14 melanoma, in the assay on HCT-15 colon, in the assay with SK-MEL-28 melanoma and with IGROV1 ovarian was over 100 µM in each case.
As for `COc1ccc2c(c1)/C(=C\c1c(C)nc3sccn13)C(=O)N2`, the GI50 in the assay with SK-MEL-2 melanoma is 0.162 µM; in the assay with NCI-H23 lung, 0.382 µM; in the assay on SR leukemia it was 0.0309 µM; with A549 NSCLC, 0.155 µM; with M14 melanoma, under 0.0495 µM; with HCT-15 colon, under 0.0468 µM. Also, the GI50 in the assay on SK-MEL-28 melanoma is 66.3 µM; in the assay on IGROV1 ovarian it was under 0.0252 µM. For the same compound, the TGI in the assay on SK-MEL-2 melanoma was over 83.7 µM; in the assay on HT29 colon, over 100 µM; with TK-10 renal, over 63.5 µM; with NCI-H23 lung, over 100 µM; with SR leukemia it was 0.38 µM; in the assay with A549 NSCLC, over 100 µM. Moreover, the TGI in the assay with M14 melanoma is over 100 µM; in the assay on HCT-15 colon, over 27.1 µM; in the assay on SK-MEL-28 melanoma, over 100 µM; with IGROV1 ovarian, 3.69 µM.
As for `COc1ccc2sc3c(NCCCN(C)C)nc4ccccc4c3c(=O)c2c1`, the GI50 with SK-MEL-2 melanoma was 1.76 µM; with HT29 colon, 1.5 µM; in the assay with TK-10 renal, 1.81 µM; with NCI-H23 lung it was 1.59 µM; in the assay with SR leukemia it was 1.68 µM; in the assay on A549 NSCLC, 1.75 µM. Further, the GI50 was 1.78 µM in the assay with M14 melanoma, 1.36 µM in the assay with HCT-15 colon, 1.78 µM in the assay on SK-MEL-28 melanoma and 1.67 µM in the assay on IGROV1 ovarian. Also, the TGI is 3.32 µM in the assay on SK-MEL-2 melanoma; 3.02 µM with HT29 colon; 3.31 µM in the assay on TK-10 renal; 3.06 µM in the assay with NCI-H23 lung; 5.99 µM with SR leukemia; 3.74 µM with A549 NSCLC. Also, the TGI with M14 melanoma is 3.33 µM; in the assay on HCT-15 colon, 2.7 µM; in the assay on SK-MEL-28 melanoma it was 3.2 µM; in the assay on IGROV1 ovarian it was 3.23 µM.
For the compound `C=CCOc1cccc(/C=C2\SC(=Nc3ccc(O)cc3)NC2=O)c1`, the GI50 is 2.91 µM in the assay with SK-MEL-2 melanoma; 3.54 µM in the assay on HT29 colon; 4.57 µM in the assay on TK-10 renal; 1.01 µM in the assay on NCI-H23 lung; 0.108 µM in the assay on SR leukemia; 0.717 µM in the assay with A549 NSCLC. Moreover, the GI50 with M14 melanoma is 0.384 µM; with HCT-15 colon, 0.358 µM; in the assay with SK-MEL-28 melanoma, 2.47 µM; in the assay with IGROV1 ovarian, 0.543 µM. Also, the TGI with SK-MEL-2 melanoma is 18.5 µM; with HT29 colon it was 29.6 µM; with TK-10 renal it was 18.8 µM; with NCI-H23 lung, 31.4 µM; with SR leukemia it was over 63.7 µM; in the assay on A549 NSCLC, 14.9 µM. Further, the TGI in the assay on M14 melanoma is 22.9 µM; with HCT-15 colon, over 100 µM; in the assay on SK-MEL-28 melanoma it was 31.2 µM; with IGROV1 ovarian, 22.8 µM.
